Source: PMC10503972, “Synthesis, predictions of drug-likeness, and pharmacokinetic properties of some chiral thioureas as potent enzyme inhibition agents” (Turkish Journal of Chemistry, 2021)

Experiments:
[1] = target: butyrylcholinesterase (BChE) horse serum (Equus caballus, UniProt P81908); experiment: Anticholinesterase inhibitory activity, BChE assay (Ellman's method); conditions: read-out: BChE assay IC50; means ± S.E.M. of three parallel measurements
Method: (§1) Herein, acetylcholinesterase (AChE) from electric eel and butyrylcholinesterase (BChE) horse serum was used. The acetylthiocholine iodide and butyryl thiocholine chloride were utilized as substrates.
(§2) The bioactivity tests were carried out in triplicate at four different concentrations. Results are given as IC50 (μg/mL). The data were the mean ± S.E.M. (standard error of the meaning) of triplicate analyses of each concentration under the 95 % reliability (p < 0.05).

tyrosinase = experiment: Tyrosinase inhibitory activity; assay type: biochemical; conditions: means ± S.E.M. of three parallel measurements
Method: The spectrophotometric analysis of tyrosinase inhibitory activities was performed according to the slightly modified literature procedures of Hearing.

[2] = target: acetylcholinesterase (AChE) from electric eel (Electrophorus electricus, UniProt O42275); conditions: read-out: AChE assay IC50; means ± S.E.M. of three parallel measurements
Method: as §1, §2

urease = urease (Canavalia ensiformis, UniProt P07374); conditions: read-out: Urease assay IC50; means ± S.E.M. of three parallel measurements
Sequence of urease (P07374 whole entry, looked up): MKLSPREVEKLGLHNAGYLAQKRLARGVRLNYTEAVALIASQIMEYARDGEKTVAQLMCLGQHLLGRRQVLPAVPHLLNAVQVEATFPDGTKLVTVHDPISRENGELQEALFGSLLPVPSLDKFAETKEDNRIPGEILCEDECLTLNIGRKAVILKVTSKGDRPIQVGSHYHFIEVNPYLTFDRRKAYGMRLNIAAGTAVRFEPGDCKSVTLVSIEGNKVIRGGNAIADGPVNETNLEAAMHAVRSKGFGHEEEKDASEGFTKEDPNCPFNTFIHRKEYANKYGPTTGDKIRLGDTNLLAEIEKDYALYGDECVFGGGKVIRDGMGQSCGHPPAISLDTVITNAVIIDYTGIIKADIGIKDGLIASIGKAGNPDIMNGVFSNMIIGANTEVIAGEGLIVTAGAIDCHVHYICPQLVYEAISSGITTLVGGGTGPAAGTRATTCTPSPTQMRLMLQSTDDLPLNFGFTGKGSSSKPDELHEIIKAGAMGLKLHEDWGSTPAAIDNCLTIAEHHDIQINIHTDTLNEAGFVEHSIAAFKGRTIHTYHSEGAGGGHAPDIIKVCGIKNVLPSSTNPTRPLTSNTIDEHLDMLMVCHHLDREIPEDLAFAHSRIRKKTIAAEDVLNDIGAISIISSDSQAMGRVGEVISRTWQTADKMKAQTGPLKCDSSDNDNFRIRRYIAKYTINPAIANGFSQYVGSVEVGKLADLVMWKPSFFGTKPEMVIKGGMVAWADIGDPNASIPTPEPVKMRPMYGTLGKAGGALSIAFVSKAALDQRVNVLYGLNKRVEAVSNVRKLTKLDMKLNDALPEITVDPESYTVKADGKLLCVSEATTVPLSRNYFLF
Method: Solutions of chiral thioureas (1 – 17) were prepared at four different concentrations, i.e., 400, 200, 100, and 50 μM for urease inhibitory assay in EtOH. Additionally, EtOH was used as a control, while thiourea was used as urease standards. […] The spectrophotometric analysis of urease inhibitory activity was performed according to the literature procedures by measuring ammonia production using the indophenol method as described earlier [37].
as §2

Sequence of butyrylcholinesterase (BChE) horse serum (P81908 whole entry): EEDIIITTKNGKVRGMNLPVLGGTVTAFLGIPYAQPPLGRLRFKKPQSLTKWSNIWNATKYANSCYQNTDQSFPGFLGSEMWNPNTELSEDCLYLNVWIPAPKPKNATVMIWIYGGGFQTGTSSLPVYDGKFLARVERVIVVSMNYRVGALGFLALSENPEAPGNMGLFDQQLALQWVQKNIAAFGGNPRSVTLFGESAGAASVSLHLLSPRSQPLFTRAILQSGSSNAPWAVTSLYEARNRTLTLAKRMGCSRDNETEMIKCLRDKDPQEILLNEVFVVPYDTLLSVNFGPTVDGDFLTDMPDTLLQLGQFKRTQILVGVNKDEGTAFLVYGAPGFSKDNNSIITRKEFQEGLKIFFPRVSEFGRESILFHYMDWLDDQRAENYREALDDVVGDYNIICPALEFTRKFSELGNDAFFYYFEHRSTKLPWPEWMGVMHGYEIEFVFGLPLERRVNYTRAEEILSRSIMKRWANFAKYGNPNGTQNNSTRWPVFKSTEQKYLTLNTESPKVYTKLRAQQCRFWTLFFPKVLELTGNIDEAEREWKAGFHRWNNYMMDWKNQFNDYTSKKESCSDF
Sequence of acetylcholinesterase (AChE) from electric eel (O42275 24-633): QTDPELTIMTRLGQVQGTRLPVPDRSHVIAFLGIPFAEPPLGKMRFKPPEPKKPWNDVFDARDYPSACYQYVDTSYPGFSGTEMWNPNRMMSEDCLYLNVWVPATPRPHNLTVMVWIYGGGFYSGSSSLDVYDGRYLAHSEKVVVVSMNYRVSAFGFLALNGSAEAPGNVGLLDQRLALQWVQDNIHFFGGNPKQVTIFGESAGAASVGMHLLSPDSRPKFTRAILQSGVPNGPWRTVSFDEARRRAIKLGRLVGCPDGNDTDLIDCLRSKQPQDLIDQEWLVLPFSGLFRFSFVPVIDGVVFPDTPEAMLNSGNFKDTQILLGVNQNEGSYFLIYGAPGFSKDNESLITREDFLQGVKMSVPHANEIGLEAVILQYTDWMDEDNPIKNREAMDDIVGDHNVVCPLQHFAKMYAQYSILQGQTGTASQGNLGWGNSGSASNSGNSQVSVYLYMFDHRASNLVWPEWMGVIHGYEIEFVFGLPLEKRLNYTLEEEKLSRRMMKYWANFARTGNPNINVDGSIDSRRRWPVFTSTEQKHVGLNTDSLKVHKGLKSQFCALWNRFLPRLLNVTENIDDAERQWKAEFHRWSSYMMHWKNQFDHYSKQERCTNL

| Compound | IC50 [1] [µM] | IC50 (tyrosinase) [mM] | IC50 [2] [µM] | IC50 (urease) [µM] |
| --- | --- | --- | --- | --- |
| N-(2,5-dimethoxyphenyl)-N′-(2-mercapto-carboxyethanyl)thiourea [Compound 11] | 49.7 ± 0.9 | 2.9 ± 0.2 | 7.2 ± 0.5 | – |
| N-(4-chlorophenyl)-N′-(2-mercapto-carboxyethanyl)thiourea [Compound 3] | 72.8 ± 1.1 | 16.1 ± 0.9 | 31.7 ± 0.8 | – |
| N-(2,5-dichlorophenyl)-N′-(2-mercapto-carboxyethanyl)thiourea [Compound 15] | 82.9 ± 0.4 | 22.2 ± 0.9 | 44.6 ± 0.3 | – |
| N-(4-methoxyphenyl)-N′-(2-mercapto-carboxyethanyl)thiourea [Compound 6] | 58.2 ± 0.1 | 1.9 ± 0.5 | 8.1 ± 0.9 | – |
| N-(4-(diethylamino)phenyl)-N′-(2-mercapto-carboxyethanyl)thiourea [Compound 17] | 18.1 ± 0.5 | 5.3 ± 0.8 | 3.9 ± 0.6 | – |
| N-(2-chloro-5-(trifluoromethyl)phenyl)-N′-(2-mercapto-carboxyethanyl)thiourea [Compound 9] | 80 ± 0.6 | 15.7 ± 0.5 | – | – |
| N-(4-cyanophenyl)-N′-(2-mercapto-carboxyethanyl)thiourea [Compound 7] | 84.4 ± 0.9 | 35 ± 1.1 | 46.8 ± 1.3 | – |
| N-(4-fluorophenyl)-N′-(2-mercapto-carboxyethanyl)thiourea [Compound 4] | 70.4 ± 0.9 | 12.5 ± 0.3 | 28.5 ± 0.5 | – |
| N-(3,5-dimethoxyphenyl)-N′-(2-mercapto-carboxyethanyl)thiourea [Compound 13] | 37.2 ± 0.1 | 2.2 ± 0.4 | 5.7 ± 1 | – |
| N-(4-(dimethylamino)phenyl)-N′-(2-mercapto-carboxyethanyl)thiourea [Compound 16] | 24.6 ± 0.7 | 4.7 ± 0.3 | 4.2 ± 0.6 | – |
| N-(3,4-dimethoxyphenyl)-N′-(2-mercapto-carboxyethanyl)thiourea [Compound 12] | 54 ± 1.3 | 1.6 ± 0.6 | 7.8 ± 0.6 | – |
| N-phenyl-N′-(2-mercapto-carboxyethanyl)thiourea [Compound 1] | 66 ± 0.1 | 9.7 ± 1 | 23.4 ± 1.2 | – |
| N-(4-(trifluoromethyl)phenyl)-N′-(2-mercapto-carboxyethanyl)thiourea [Compound 5] | 64.3 ± 0.7 | 10.4 ± 0.2 | 16.7 ± 0.2 | – |
| N-(5-chloro-2-methoxyphenyl)-N′-(2-mercapto-carboxyethanyl)thiourea [Compound 8] | 61.2 ± 0.5 | 4 ± 0.6 | 9.5 ± 1.2 | – |
| N-(4-bromophenyl)-N′-(2-mercapto-carboxyethanyl)thiourea [Compound 2] | 75.1 ± 0.5 | 28.8 ± 0.1 | 36.4 ± 0.2 | – |
| N-(3,4,5-trimethoxyphenyl)-N′-(2-mercapto-carboxyethanyl)thiourea [Compound 14] | 29.5 ± 1.1 | 1.1 ± 0.1 | 4.8 ± 0.9 | – |
| NC(N)=S [Thiourea] | – | – | – | 24.2 ± 0.3 |
| N-(2,4-dimethoxyphenyl)-N′-(2-mercapto-carboxyethanyl)thiourea [Compound 10] | 45.8 ± 0.4 | 1.5 ± 0.3 | 6.8 ± 1.1 | – |
